Laboratory results published in patent US9102678B2, “Compounds and methods for inhibiting mitotic progression” (Millennium Pharmaceuticals, Inc., priority 2004, dated 2015).

target: T1, recombinant murine Aurora A enzyme (Mus musculus, UniProt P97477); assay: Aurora A DELFIA Kinase Assay; assay type: biochemical; conditions: mouse Aurora A, 250 μM ATP; threshold less than or equal to 100 nM; read-out: IC50
T1 construct: hexahistidine (His6) (N); made in house; host or cells: insect cells, baculovirus (Bac-to-Bac, Invitrogen)
T1 sequence (P97477 whole entry): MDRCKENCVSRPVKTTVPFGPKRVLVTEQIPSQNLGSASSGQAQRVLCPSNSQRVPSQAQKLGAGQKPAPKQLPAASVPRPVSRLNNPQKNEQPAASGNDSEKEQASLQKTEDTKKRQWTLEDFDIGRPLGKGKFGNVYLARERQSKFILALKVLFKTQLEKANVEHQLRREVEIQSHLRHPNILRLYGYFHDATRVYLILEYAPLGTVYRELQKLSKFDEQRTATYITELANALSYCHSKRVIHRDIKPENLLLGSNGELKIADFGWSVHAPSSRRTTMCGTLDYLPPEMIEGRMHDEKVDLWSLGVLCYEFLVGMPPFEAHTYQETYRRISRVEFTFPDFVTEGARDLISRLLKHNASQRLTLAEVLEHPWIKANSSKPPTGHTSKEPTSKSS

Structure (SMILES)	IC50 [µM]
CN(C)C1CCN(C(=O)c2ccc(Nc3ncc4c(n3)-c3ccc(Cl)cc3C(c3c(F)cccc3F)=NC4)cc2Cl)C1 (stereo not drawn) [Compound I-215, 9-chloro-N-(3-chloro-4-{[3-(dimethylamino)pyrrolidin-1-yl]carbonyl}phenyl)-7-(2,6-difluorophenyl)-5H-pyrimido[5,4-d][2]benzazepin-2-amine]	≤ 0.1
CC1CN(C(=O)c2ccc(Nc3ncc4c(n3)-c3ccc(Cl)cc3C(c3c(F)cccc3F)=NC4)cc2Cl)CCN1 (stereo not drawn) [Compound I-216, 9-chloro-N-{3-chloro-4-[(3-methylpiperazin-1-yl)carbonyl]phenyl}-7-(2,6-difluorophenyl)-5H-pyrimido[5,4-d][2]benzazepin-2-amine]	≤ 0.1
Nc1ccc(Nc2ncc3c(n2)-c2ccc(Cl)cc2C(c2c(F)cccc2F)=NC3)cc1 [Compound I-217, N-[9-chloro-7-(2,6-difluorophenyl)-5H-pyrimido[5,4-d][2]benzazepin-2-yl]benzene-1,4-diamine]	≤ 0.1
CNC1CCN(C(=O)c2ccc(Nc3ncc4c(n3)-c3ccc(Cl)cc3C(c3c(F)cccc3F)=NC4)cc2)CC1 [Compound I-220, 9-chloro-7-(2,6-difluorophenyl)-N-(4-{[4-(methylamino)piperidin-1-yl]carbonyl}phenyl)-5H-pyrimido[5,4-d][2]benzazepin-2-amine]	≤ 0.1
N=C(NC(=O)c1ccc(Nc2ncc3c(n2)-c2ccc(Cl)cc2C(c2c(F)cccc2F)=NC3)cc1)N1CCNCC1 [Compound I-224, 4-{[9-chloro-7-(2,6-difluorophenyl)-5H-pyrimido[5,4-d][2]benzazepin-2-yl]amino}-N-[imino(piperazin-1-yl)methyl]benzamide]	≤ 0.1
COc1cccc(F)c1C1=NCc2cnc(Nc3ccc(C(=O)N(C)CCCN(C)C)cc3)nc2-c2ccc(Cl)cc21 [Compound I-225, 4-{[9-chloro-7-(2-fluoro-6-methoxyphenyl)-5H-pyrimido[5,4-d][2]benzazepin-2-yl]amino}-N-[3-(dimethylamino)propyl]-N-methylbenzamide]	≤ 0.1
COc1cccc(F)c1C1=NCc2cnc(Nc3cccc(C(=O)N4CC(N(C)C)C4)c3)nc2-c2ccc(Cl)cc21 [Compound I-227, 9-chloro-N-(3-{[3-(dimethylamino)azetidin-1-yl]carbonyl}phenyl)-7-(2-fluoro-6-methoxyphenyl)-5H-pyrimido[5,4-d][2]benzazepin-2-amine]	≤ 0.1
COc1cccc(F)c1C1=NCc2cnc(Nc3ccc(C(=O)N4CCN(C)CC4)cc3)nc2-c2ccc(Cl)cc21 [Compound I-233, 9-chloro-7-(2-fluoro-6-methoxyphenyl)-N-{4-[(4-methylpiperazin-1-yl)carbonyl]phenyl}-5H-pyrimido[5,4-d][2]benzazepin-2-amine]	≤ 0.1
CNC1CN(C(=O)c2ccc(Nc3ncc4c(n3)-c3ccc(Cl)cc3C(c3c(F)cccc3F)=NC4)cc2)C1 [Compound I-234, 9-chloro-7-(2,6-difluorophenyl)-N-(4-{[3-(methylamino)azetidin-1-yl]carbonyl}phenyl)-5H-pyrimido[5,4-d][2]benzazepin-2-amine]	≤ 0.1
CC1CN(C(=N)NC(=O)c2ccc(Nc3ncc4c(n3)-c3ccc(Cl)cc3C(c3c(F)cccc3F)=NC4)cc2)CC(C)N1 (stereo not drawn) [Compound I-238, 4-{[9-chloro-7-(2,6-difluorophenyl)-5H-pyrimido[5,4-d][2]benzazepin-2-yl]amino}-N-[(3,5-dimethylpiperazin-1-yl)(imino)methyl]benzamide]	≤ 0.1
COc1cccc(F)c1C1=NCc2cnc(Nc3ccc(C(=O)N4CCC(N)CC4)cc3)nc2-c2ccc(Cl)cc21 [Compound I-241, N-{4[(4-aminopiperidin-1-yl)carbonyl]phenyl}-9-chloro-7-(2-fluoro-6-methoxyphenyl)-5H-pyrimido[5,4-d][2]benzazepin-2-amine]	≤ 0.1
CNC1CCN(C(=O)c2ccc(Nc3ncc4c(n3)-c3ccc(Cl)cc3C(c3c(F)cccc3OC)=NC4)cc2)CC1 [Compound I-242, 9-chloro-7-(2-fluoro-6-methoxyphenyl)-N-(4-{[4-(methylamino)piperidin-1-yl]carbonyl}phenyl)-5H-pyrimido[5,4-d][2]benzazepin-2-amine]	≤ 0.1
CN(C)C1CCN(C(=N)c2ccc(Nc3ncc4c(n3)-c3ccc(Cl)cc3C(c3c(F)cccc3F)=NC4)cc2)CC1 [Compound I-244, 9-chloro-7-(2,6-difluorophenyl)-N-{4-[[4-(dimethylamino)piperidin-1-yl](imino)methyl]phenyl}-5H-pyrimido[5,4-d][2]benzazepin-2-amine]	≤ 0.1

The next lines start with the values.

IC50 [µM]	Structure (SMILES)
≤ 0.1	O=C(O)C1CNCCN1C(=O)c1ccc(Nc2ncc3c(n2)-c2ccc(Cl)cc2C(c2c(F)cccc2F)=NC3)cc1 (stereo not drawn) [Compound I-219, 1-(4-{[9-chloro-7-(2,6-difluorophenyl)-5H-pyrimido[5,4-d][2]benzazepin-2-yl]amino}benzoyl)piperazine-2-carboxylic acid]
≤ 0.1	NC1CCCN(C(=O)c2ccc(Nc3ncc4c(n3)-c3ccc(Cl)cc3C(c3c(F)cccc3F)=NC4)cc2)C1 (stereo not drawn) [Compound I-221]
≤ 0.1	CC1CN(C(=O)c2cccc(Nc3ncc4c(n3)-c3ccc(Cl)cc3C(c3c(F)cccc3F)=NC4)c2)CC(C)N1 (stereo not drawn) [Compound I-222, 9-chloro-7-(2,6-difluorophenyl)-N-{3-[(3,5-dimethylpiperazin-1-yl)carbonyl]phenyl}-5H-pyrimido[5,4-d][2]benzazepin-2-amine]
≤ 0.1	CN(C)C1CCN(C(=N)NC(=O)c2ccc(Nc3ncc4c(n3)-c3ccc(Cl)cc3C(c3c(F)cccc3F)=NC4)cc2)CC1 [Compound I-223, 4-{[9-chloro-7-(2,6-difluorophenyl)-5H-pyrimido[5,4-d][2]benzazepin-2-yl]amino}-N-[[4-(dimethylamino)piperidin-1-yl](imino)methyl]benzamide]
≤ 0.1	COc1cccc(F)c1C1=NCc2cnc(Nc3cccc(C(=O)N(C)CCCN(C)C)c3)nc2-c2ccc(Cl)cc21 [Compound I-226, 3-{[9-chloro-7-(2-fluoro-6-methoxyphenyl)-5H-pyrimido[5,4-d][2]benzazepin-2-yl]amino}-N-[3-(dimethylamino)propyl]-N-methylbenzamide]
≤ 0.1	COc1cccc(F)c1C1=NCc2cnc(Nc3cccc(C(=O)N4CC(C)NC(C)C4)c3)nc2-c2ccc(Cl)cc21 (stereo not drawn) [Compound I-228, 9-chloro-N-{3-[(3,5-dimethylpiperazin-1-yl)carbonyl]phenyl}-7-(2-fluoro-6-methoxyphenyl)-5H-pyrimido[5,4-d][2]benzazepin-2-amine]
≤ 0.1	COc1cccc(F)c1C1=NCc2cnc(Nc3cccc(C(=O)N4CCC(N(C)C)CC4)c3)nc2-c2ccc(Cl)cc21 [Compound I-229, 9-chloro-N-(3-{[4-(dimethylamino)piperidin-1-yl]carbonyl}phenyl)-7-(2-fluoro-6-methoxyphenyl)-5H-pyrimido[5,4-d][2]benzazepin-2-amine]
≤ 0.1	COc1cccc(F)c1C1=NCc2cnc(Nc3cccc(C(=O)N4CCC(N(C)C)C4)c3)nc2-c2ccc(Cl)cc21 (stereo not drawn) [Compound I-231, 9-chloro-N-(3-{[3-(dimethylamino)pyrrolidin-1-yl]carbonyl}phenyl)-7-(2-fluoro-6-methoxyphenyl)-5H-pyrimido[5,4-d][2]benzazepin-2-amine]
≤ 0.1	COc1cccc(F)c1C1=NCc2cnc(Nc3ccc(C(=O)N4CCNC(C)C4)cc3)nc2-c2ccc(Cl)cc21 (stereo not drawn) [Compound I-232]
≤ 0.1	CNC1CN(C(=O)c2ccc(Nc3ncc4c(n3)-c3ccc(Cl)cc3C(c3c(F)cccc3OC)=NC4)cc2)C1 [Compound I-235, 9-chloro-7-(2-fluoro-6-methoxyphenyl)-N-(4-{[3-(methylamino)azetidin-1-yl]carbonyl}phenyl)-5H-pyrimido[5,4-d][2]benzazepin-2-amine]
≤ 0.1	CN(C)C1CCN(C(=N)NC(=O)c2ccc(Nc3ncc4c(n3)-c3ccc(Cl)cc3C(c3c(F)cccc3F)=NC4)cc2)C1 (stereo not drawn) [Compound I-237, 4-[9-Chloro-7-(2,6-difluoro-phenyl)-5H-benzo[c]pyrimido[4,5-e]azepin-2-ylamino]-N-[(3-dimethylamino-pyrrolidin-1-yl)-imino-methyl]-benzamide]
≤ 0.1	NC1CCN(C(=O)c2ccc(Nc3ncc4c(n3)-c3ccc(Cl)cc3C(c3c(F)cccc3F)=NC4)cc2)CC1 [Compound I-239, N-{4-[(4-aminopiperidin-1-yl)carbonyl]phenyl}-9-chloro-7-(2,6-difluorophenyl)-5H-pyrimido[5,4-d][2]benzazepin-2-amine]
≤ 0.1	COc1cccc(F)c1C1=NCc2cnc(Nc3ccc(C(=O)N4CCC(N)C4)cc3)nc2-c2ccc(Cl)cc21 (stereo not drawn) [Compound I-240]
≤ 0.1	COc1cccc(F)c1C1=NCc2cnc(Nc3ccc(C(=O)N4CCNCC4)cc3)nc2-c2ccc(Cl)cc21 [Compound I-243, 9-chloro-7-(2-fluoro-6-methoxyphenyl)-N-[4-(piperazin-1-ylcarbonyl)phenyl]-5H-pyrimido[5,4-d][2]benzazepin-2-amine]
≤ 0.1	CNCCN(C)C(=O)c1ccc(Nc2ncc3c(n2)-c2ccc(Cl)cc2C(c2c(F)cccc2F)=NC3)cc1 [Compound I-246, 4-{[9-chloro-7-(2,6-difluorophenyl)-5H-pyrimido[5,4-d][2]benzazepin-2-yl]amino}-N-methyl-N-[2-(methylamino)ethyl]benzamide]
≤ 0.1	CN(C)CCN(C)C(=O)c1ccc(Nc2ncc3c(n2)-c2ccc(Cl)cc2C(c2c(F)cccc2F)=NC3)cc1 [Compound I-247, 4-{[9-chloro-7-(2,6-difluorophenyl)-5H-pyrimido[5,4-d][2]benzazepin-2-yl]amino}-N-[2-(dimethylamino)ethyl]-N-methylbenzamide]
≤ 0.1	COC(=O)C1CN(C(=O)c2ccc(Nc3ncc4c(n3)-c3ccc(Cl)cc3C(c3c(F)cccc3F)=NC4)cc2)CCN1 (stereo not drawn) [Compound I-248, methyl 4-(4-{[9-chloro-7-(2,6-difluorophenyl)-5H-pyrimido[5,4-d][2]benzazepin-2-yl]amino}benzoyl)piperazine-2-carboxylate]
